According to patent US7928060B2, “Amylin family polypeptide-6 (AFP-6) analogs and methods of making and using them” (Amylin Pharmaceuticals, Inc., priority 2004, dated 2011):
Where two headings read alike, the source gives them in different places. Bridge positions count the residues as written; N and C are the ends. Ends that are not written are not given here. Peptide text beside a SMILES is read from it.

Tests used:
amylin receptors = biological target: T1, amylin receptors (Rattus norvegicus, UniProt P32214); test: amylin radioligand binding assay (125I-rat amylin, nucleus accumbens membranes); details: Table 6; read-out: Amylin receptor binding
T1 construct: This basal forebrain tissue, containing the nucleus accumbens and surrounding regions, was weighed and homogenized; from tissue; host or cells: rat basal forebrain (nucleus accumbens) membranes, male Sprague-Dawley rats
T1 sequence (P32214 25-516): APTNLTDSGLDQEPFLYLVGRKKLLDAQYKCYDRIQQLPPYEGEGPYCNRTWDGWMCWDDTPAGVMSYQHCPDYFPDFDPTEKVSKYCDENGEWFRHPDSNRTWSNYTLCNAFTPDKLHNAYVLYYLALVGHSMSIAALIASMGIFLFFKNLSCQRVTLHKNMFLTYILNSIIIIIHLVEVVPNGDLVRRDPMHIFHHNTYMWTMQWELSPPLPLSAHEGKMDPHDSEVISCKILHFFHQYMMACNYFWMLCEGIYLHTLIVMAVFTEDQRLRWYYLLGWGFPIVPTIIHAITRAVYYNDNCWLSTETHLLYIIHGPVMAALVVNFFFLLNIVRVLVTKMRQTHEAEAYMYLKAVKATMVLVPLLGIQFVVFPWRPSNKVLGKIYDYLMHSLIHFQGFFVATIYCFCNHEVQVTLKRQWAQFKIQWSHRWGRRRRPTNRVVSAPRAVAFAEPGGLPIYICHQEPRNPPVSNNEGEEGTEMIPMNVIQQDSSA
Experimental: Unlabeled peptides were obtained from BACHEM Inc. (Torrance, Calif.).
Male Sprague-Dawley® rats (200-250) grams were sacrificed by decapitation. Brains were removed and place in cold phosphate-buffered saline (PBS). From the ventral surface, cuts were made rostral to the hypothalamus, bounded laterally by the olfactory tracts and extending at a 45° angle medially from these tracts. […] Membranes were washed three times in fresh buffer by centrifugation for 15 minutes at 48,000×g. The final membrane pellet was resuspended in 20 mM HEPES buffer containing 0.2 mM phenylmethylsulfonyl fluoride (PMSF).
Solutions were incubated for 60 minutes at 2 C. […] Filters were washed immediately before filtration with 5 ml cold PBS, and immediately after filtration with 15 ml cold PBS. […] Competition curves were generated by measuring binding in the presence of 10^−12 to 10^−6 M unlabeled test compound and were analyzed by nonlinear regression using a 4-parameter logistic equation (INPLOT program; […] Software, San Diego, Calif.).

calcitonin receptor [1] = biological target: T2, calcitonin receptor (Rattus norvegicus, UniProt P32214); test: calcitonin receptor binding assay (rCalcitonin RBA); details: Table 6; read-out: CT receptor binding
T2 sequence (P32214 25-516): T1 sequence (P32214 25-516)

adrenomedullin receptor = adrenomedullin receptor (Homo sapiens, UniProt O60895+Q16602); test: adrenomedullin (ADM) receptor binding assay; details: Table 6
Chain of adrenomedullin receptor (Q16602 23-461): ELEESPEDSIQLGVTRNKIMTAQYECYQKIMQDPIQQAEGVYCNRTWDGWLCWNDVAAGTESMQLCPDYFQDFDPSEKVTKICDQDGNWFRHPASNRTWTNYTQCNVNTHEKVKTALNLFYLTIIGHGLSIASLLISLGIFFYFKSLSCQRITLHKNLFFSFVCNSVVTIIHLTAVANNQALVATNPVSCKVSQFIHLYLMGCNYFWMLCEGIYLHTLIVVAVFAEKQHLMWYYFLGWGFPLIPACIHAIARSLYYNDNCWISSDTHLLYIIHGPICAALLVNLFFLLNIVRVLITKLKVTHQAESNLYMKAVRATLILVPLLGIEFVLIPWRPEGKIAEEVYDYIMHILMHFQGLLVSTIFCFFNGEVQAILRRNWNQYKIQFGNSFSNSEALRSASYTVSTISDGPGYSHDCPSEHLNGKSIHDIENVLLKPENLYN
Chain of adrenomedullin receptor (O60895 43-175): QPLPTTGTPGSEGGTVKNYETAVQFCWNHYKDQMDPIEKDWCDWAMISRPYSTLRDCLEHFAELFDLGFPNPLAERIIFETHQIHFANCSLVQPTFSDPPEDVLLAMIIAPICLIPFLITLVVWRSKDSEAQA

calcitonin receptor [2] = test: cAMP production in CHO cells (AlphaScreen); type: cell-based; details: CHO, 30,000 cells/well

Compound | IC50 (amylin receptors) [nM] | IC50 (calcitonin receptor [1]) [nM] | IC50 (adrenomedullin receptor) [nM] | EC50 (calcitonin receptor [2]; average of three experiments, read-out: Average EC50) [nM] | EC50 (calcitonin receptor [2]; read-out: Experiment 1 EC50) [nM] | EC50 (calcitonin receptor [2]; read-out: Experiment 2 EC50) [nM] | EC50 (calcitonin receptor [2]; read-out: Experiment 3 EC50) [nM]
CC[C@H](C)[C@H](NC(=O)[C@H](C)NC(=O)[C@@H](NC(=O)[C@H](CCC(N)=O)NC(=O)[C@@H]1CCCN1C(=O)[C@H](Cc1ccccc1)NC(=O)[C@@H](NC(=O)[C@H](Cc1c[nH]cn1)NC(=O)[C@H](Cc1ccccc1)NC(=O)[C@H](CCCCN)NC(=O)[C@H](CC(N)=O)NC(=O)[C@H](Cc1ccccc1)NC(=O)[C@H](CC(=O)O)NC(=O)[C@H](CCC(N)=O)NC(=O)[C@@H](NC(=O)[C@H](Cc1ccc(O)cc1)NC(=O)[C@@H](NC(=O)CNC(=O)[C@H](CC(C)C)NC(=O)[C@H](CCSC)NC(=O)[C@@H]1CSSC[C@H](N)C(=O)NCC(=O)N[C@@H](CC(N)=O)C(=O)N[C@@H](CC(C)C)C(=O)N[C@@H](CO)C(=O)N[C@@H]([C@@H](C)O)C(=O)N1)[C@@H](C)O)[C@@H](C)O)[C@@H](C)O)[C@@H](C)O)C(=O)NCC(=O)N[C@H](C(=O)NCC(=O)N[C@@H](C)C(=O)N1CCC[C@H]1C(N)=O)C(C)C [SEQ ID NO: 6] |  |  |  | 0.097 | 0.077 | 0.14 | 0.075
CSCC[C@H](NC(=O)[C@H](CC(C)C)NC(=O)[C@H](CCC(N)=O)NC(=O)[C@H](Cc1c[nH]c2ccccc12)NC(=O)[C@H](CC(C)C)NC(=O)[C@H](CCCNC(=N)N)NC(=O)[C@H](Cc1c[nH]cn1)NC(=O)[C@H](CO)NC(=O)[C@H](CC(C)C)NC(=O)[C@H](CC(N)=O)NC(=O)[C@H](CCC(N)=O)NC(=O)[C@@H](NC(=O)[C@H](CCC(N)=O)NC(=O)[C@@H]1CSSC[C@H](NC(=O)CNC(=O)[C@@H](N)C(C)C)C(=O)N[C@@H](C(C)C)C(=O)N[C@@H](CC(C)C)C(=O)NCC(=O)N[C@@H]([C@@H](C)O)C(=O)N1)C(C)C)C(=O)NCC(=O)N1CCC[C@H]1C(=O)N[C@@H](C)C(=O)NCC(=O)N[C@@H](CCCNC(=N)N)C(=O)N[C@@H](CCC(N)=O)C(=O)N[C@@H](CC(=O)O)C(=O)N[C@@H](CO)C(=O)N[C@@H](C)C(=O)N1CCC[C@H]1C(=O)N[C@H](C(=O)N[C@@H](CCC(=O)O)C(=O)N1CCC[C@H]1C(=O)N[C@@H](CO)C(=O)N[C@@H](CO)C(=O)N1CCC[C@H]1C(=O)N[C@@H](Cc1c[nH]cn1)C(=O)N[C@@H](CO)C(=O)N[C@@H](Cc1ccc(O)cc1)C(N)=O)C(C)C [compound 35] (H-VGCVLGTCQVQNLSHRLWQLMGPAGRQDSAPVEPSSPHSY-NH2; disulfide 3-8 (inferred)) | 17 | 153 | 37 |  |  |  | 
CC(C)C[C@H](NC(=O)[C@H](CCC(N)=O)NC(=O)[C@H](Cc1c[nH]c2ccccc12)NC(=O)[C@H](CC(C)C)NC(=O)[C@H](CCCNC(=N)N)NC(=O)[C@H](Cc1c[nH]cn1)NC(=O)[C@H](CO)NC(=O)[C@H](CC(C)C)NC(=O)[C@H](CC(N)=O)NC(=O)[C@H](CCC(N)=O)NC(=O)[C@@H](NC(=O)[C@H](CCC(N)=O)NC(=O)[C@@H]1CSSC[C@H](NC(=O)CN)C(=O)N[C@@H](CC(N)=O)C(=O)N[C@@H]([C@@H](C)O)C(=O)N[C@@H](C)C(=O)N[C@@H]([C@@H](C)O)C(=O)N1)C(C)C)C(=O)N[C@@H](CCCNC(=N)N)C(=O)N[C@@H](CCC(N)=O)C(=O)N[C@@H](CC(=O)O)C(=O)N[C@@H](CO)C(=O)N[C@@H](C)C(=O)N1CCC[C@H]1C(=O)N[C@H](C(=O)N[C@@H](CCC(=O)O)C(=O)N1CCC[C@H]1C(=O)N[C@@H](CO)C(=O)N[C@@H](CO)C(=O)N1CCC[C@H]1C(=O)N[C@@H](Cc1c[nH]cn1)C(=O)N[C@@H](CO)C(=O)N[C@@H](Cc1ccc(O)cc1)C(N)=O)C(C)C [compound 37] (H-GCNTATCQVQNLSHRLWQLRQDSAPVEPSSPHSY-NH2; disulfide 2-7 (inferred); N-terminus assumed) | 39 | 121 | ≥ 1000 |  |  |  | 
CC(C)C[C@H](NC(=O)[C@H](CCC(N)=O)NC(=O)[C@H](C)NC(=O)[C@H](CCC(N)=O)NC(=O)[C@@H](N)[C@@H](C)O)C(=O)N[C@@H](CC(C)C)C(=O)N[C@@H](CCCNC(=N)N)C(=O)N[C@H](C(=O)NCC(=O)N[C@H]1CSSC[C@@H](C(=O)N[C@@H](CCC(N)=O)C(=O)N[C@H](C(=O)N[C@@H](CCC(N)=O)C(=O)N[C@@H](CC(N)=O)C(=O)N[C@@H](CC(C)C)C(=O)N[C@@H](CO)C(=O)N[C@@H](Cc2c[nH]cn2)C(=O)N[C@@H](CCCNC(=N)N)C(=O)N[C@@H](CC(C)C)C(=O)N[C@@H](Cc2c[nH]c3ccccc23)C(=O)N[C@@H](CCC(N)=O)C(=O)N[C@@H](CC(C)C)C(=O)N[C@@H](CC(=O)O)C(=O)N[C@@H](CO)C(=O)N[C@@H](C)C(=O)N2CCC[C@H]2C(=O)N[C@H](C(=O)N[C@@H](CC(=O)O)C(=O)N2CCC[C@H]2C(=O)N[C@@H](CO)C(=O)N[C@@H](CO)C(=O)N2CCC[C@H]2C(=O)N[C@@H](Cc2c[nH]cn2)C(=O)N[C@@H](CO)C(=O)N[C@@H](Cc2ccc(O)cc2)C(N)=O)C(C)C)C(C)C)NC(=O)[C@H]([C@@H](C)O)NC(=O)CNC(=O)[C@H](CC(C)C)NC(=O)[C@H](C(C)C)NC1=O)C(C)C [compound 17] (H-TQAQLLRVGCVLGTCQVQNLSHRLWQLDSAPVDPSSPHSY-NH2; disulfide 10-15 (inferred); N-terminus assumed) |  | > 1000 | 304 |  |  |  | 
CC(C)C[C@H](NC(=O)[C@H](CCC(N)=O)NC(=O)[C@H](Cc1c[nH]c2ccccc12)NC(=O)[C@H](CC(C)C)NC(=O)[C@H](CCCNC(=N)N)NC(=O)[C@H](Cc1c[nH]cn1)NC(=O)[C@H](CO)NC(=O)[C@H](CC(C)C)NC(=O)[C@H](CC(N)=O)NC(=O)[C@H](CCC(N)=O)NC(=O)[C@@H](NC(=O)[C@H](CCC(N)=O)NC(=O)[C@@H]1CSSC[C@H](N)C(=O)N[C@@H](C(C)C)C(=O)N[C@@H](CC(C)C)C(=O)NCC(=O)N[C@@H]([C@@H](C)O)C(=O)N1)C(C)C)C(=O)N[C@@H](CCCNC(=N)N)C(=O)N[C@@H](CCC(N)=O)C(=O)N[C@@H](CCC(=O)O)C(=O)N[C@@H](CO)C(=O)N[C@@H](C)C(=O)N1CCC[C@H]1C(=O)N[C@H](C(=O)N[C@@H](CCC(=O)O)C(=O)N1CCC[C@H]1C(=O)N[C@@H](CO)C(=O)N[C@@H](CO)C(=O)N1CCC[C@H]1C(=O)N[C@@H](Cc1c[nH]cn1)C(=O)N[C@@H](CO)C(=O)N[C@@H](Cc1ccc(O)cc1)C(N)=O)C(C)C [compound 19] (H-CVLGTCQVQNLSHRLWQLRQESAPVEPSSPHSY-NH2; disulfide 1-6 (inferred); N-terminus assumed) |  | 247 | ≥ 1000 |  |  |  | 

The remaining compounds from weak to strong by IC50 (adrenomedullin receptor), led by results:

IC50 (amylin receptors) [nM] | IC50 (calcitonin receptor [1]) [nM] | IC50 (adrenomedullin receptor) [nM] | Compound | EC50 (calcitonin receptor [2]; average of three experiments, read-out: Average EC50) [nM] | EC50 (calcitonin receptor [2]; read-out: Experiment 1 EC50) [nM] | EC50 (calcitonin receptor [2]; read-out: Experiment 2 EC50) [nM] | EC50 (calcitonin receptor [2]; read-out: Experiment 3 EC50) [nM]
16 |  | 7.1 | TQAQLLRVGCVLGTCQVQNLSHRLWQLMGPAGRQESAPVEPSSPHSY-NH2 (disulfide 10-15 (inferred)) [compound 32] |  |  |  | 
12 | 24 | 6.4 | CSCC[C@H](NC(=O)[C@H](CC(C)C)NC(=O)[C@H](CCC(N)=O)NC(=O)[C@H](Cc1c[nH]c2ccccc12)NC(=O)[C@H](CC(C)C)NC(=O)[C@H](CCCNC(=N)N)NC(=O)[C@H](Cc1c[nH]cn1)NC(=O)[C@H](CO)NC(=O)[C@H](CC(C)C)NC(=O)[C@H](CC(N)=O)NC(=O)[C@H](CCC(N)=O)NC(=O)[C@@H](NC(=O)[C@H](CCC(N)=O)NC(=O)[C@@H]1CSSC[C@H](NC(=O)CNC(=O)[C@@H](N)C(C)C)C(=O)N[C@@H](C(C)C)C(=O)N[C@@H](CC(C)C)C(=O)NCC(=O)N[C@@H]([C@@H](C)O)C(=O)N1)C(C)C)C(=O)NCC(=O)N1CCC[C@H]1C(=O)N[C@@H](C)C(=O)NCC(=O)N[C@@H](CCCNC(=N)N)C(=O)N[C@@H](CCC(N)=O)C(=O)N[C@@H](CC(=O)O)C(=O)N[C@@H](CO)C(=O)N[C@@H](C)C(=O)N1CCC[C@H]1C(=O)N[C@H](C(=O)N[C@@H](CC(=O)O)C(=O)N1CCC[C@H]1C(=O)N[C@@H](CO)C(=O)N[C@@H](CO)C(=O)N1CCC[C@H]1C(=O)N[C@@H](Cc1c[nH]cn1)C(=O)N[C@@H](CO)C(=O)N[C@@H](Cc1ccc(O)cc1)C(N)=O)C(C)C [compound 2] |  |  |  | 
